Reference: ChEMBL document CHEMBL1134260, “Adamantylaminopyrimidines and -pyridines are potent inducers of tumor necrosis factor-alpha” (2001)
Activity calls are given as the source filed them. No cut-off for these calls is given here.

Legend:
[1] = TNF-alpha stimulatory activity in B78/TNF/9 melanoma cells evaluated by ELISA method; type: functional, Mus musculus; set-up: concentration or dose not given beside the values
Mus musculus [2] = species on record: Mus musculus; test: Tested for the ability to stimulate TNF-alpha production in B78-H1 murine melanoma cells transduced with gene for human TNF-alpha, clone-9 at 10 uM concentration; In active; type: functional
[3] = Tested for the ability to stimulate TNF-alpha production in B78-H1 murine melanoma cells transduced with gene for human TNF-alpha, clone-9 at 10 uM concentration; type: functional, Mus musculus
Mus musculus [4] = species on record: Mus musculus; test: Tested for the ability to stimulate TNF-alpha production in B78-H1 murine melanoma cells transduced with gene for human TNF-alpha, clone-9 at 10 nM concentration; In active; type: functional

Structure (SMILES) | TNF-alpha production (% of control) [1] [%] | other results
Cc1ccc(NC23CC4CC(CC(C4)C2)C3)nc1 | ~200 | 
c1ccc(NC23CC4CC(CC(C4)C2)C3)nc1 | ~170 | Enhancement (Mus musculus [2]): inactive
Cc1ccnc(NC23CC4CC(CC(C4)C2)C3)c1 | ~200 | 
Cc1cc(C)nc(NC23CC4CC(CC(C4)C2)C3)c1 | ~250 | Enhancement (Mus musculus [2]): inactive
NC12CC3CC(CC(C3)C1)C2 |  | Enhancement (Mus musculus [2]): inactive
Brc1cnc(NC23CC4CC(CC(C4)C2)C3)nc1 | ~150 | 
Cc1cc(N)nc(NC23CC4CC(CC(C4)C2)C3)n1 | ~180 | 
Cc1cc(Cl)nc(NC23CC4CC(CC(C4)C2)C3)n1 | ~220 | 
c1cncc(NC23CC4CC(CC(C4)C2)C3)c1 | ~190 | 
Cc1cccc(NC23CC4CC(CC(C4)C2)C3)n1 | ~260 | Enhancement [3]: 10%
Brc1ccc(NC23CC4CC(CC(C4)C2)C3)nc1 | ~140 | 
Cc1cc(C)nc(NC23CC4CC(CC(C4)C2)C3)n1 | ~240 | Enhancement (Mus musculus [4]): inactive
c1cnc(NC23CC4CC(CC(C4)C2)C3)nc1 | ~200 | 
c1cc(NC23CC4CC(CC(C4)C2)C3)ccn1 | ~130 | 
Clc1ccc(NC23CC4CC(CC(C4)C2)C3)cn1 | ~100 | 
